The target of one data set is T1, STING HAQ-variant (Homo sapiens, UniProt Q86WV6, G230A/H232R/R293Q/R71H).
T1 construct: parental THP1-Blue™ ISG cell lines (which express endogenously HAQ); host or cells: THP1-Blue ISG (parental, endogenous HAQ) or STING-KO clone re-transduced with HAQ (MSCV-ires-GFP-Blasti)
Put plainly: IRF-inducible SEAP reporter assay in THP1-Blue ISG cells, STING HAQ-variant. Type of data set: cell-based. To be noted: STING HAQ-variant (parental or re-introduced), 24 hours incubation. The text has this:
In Vitro Cytokine Induction Measured Via Activation of an Interferon Regulatory Factor Inducible Reporter Gene
Activation of the STING protein expressed in cell lines results in an increase of interferon production. By the stable integration of an interferon regulatory factor (IRF)-inducible SEAP gene (secreted embryonic alkaline phosphatase) reporter construct the functional interferon signaling pathway can be monitored. Using Invivogen's THP1-Blue™ ISG colorimetric enzyme assay and a suitable optical density (OD) reader the activity of SEAP can be detected and quantified. This technique could be used to characterize pharmacological modification of the STING pathway.
Several single nucleotide polymorphisms have been identified in the human STING gene. To determine the activity of the above described compounds, THP1-Blue™ ISG reporter cell lines expressing the different human STING variants have been generated. To do so, the endogenous human STING was first deleted using the CRISPR/CAS9 system: THP1-Blue ISG cells were electroporated with ALL-IN-ONE CRISPR plasmids targeting the STING gene (purchased from Sigma encoding the gRNA and GFP as a reporter gene for successful transduction). GFP positive cells then were sorted 24 h post transfection and expanded. Cells were then dispersed in semisolid methocel medium to allow single cell clone isolations. Clones were then screened for cGAMP responsiveness using the Quanti-Blue™ reporter assay. Non-responsive clones were subsequently analysed for STING loss by western blotting and sequencing of the STING locus.
For the overexpression of the human STING variants, a confirmed THP1-Blue™ ISG hSTING KO clone was transduced with individual retroviral plasmids (MSCV-ires-GFP-Blasti) encoding the allelic variants of hSTING (WT (H232R), HAQ, R232H, AQ and R293Q). Transduced cells were sorted for different levels of GFP fluorescence and STING allele expression was analysed by western blot.
Measurements of SEAP activity were performed in THP1-Blue™ ISG cells stably expressing the different human STING isoforms and the IRF-inducible SEAP reporter construct. Cells were cultivated in RPMI1640 medium with 10% fetal calf serum, 50 μg/ml Penicillin-Streptomycin, 100 μg/ml Zeocin, and 100 μg/ml Normocin in a 37°, 95% humidity and 5% CO2 incubator.
In preparation for the assay, the cells were distributed into the assay plates with a density of 10000 cells/15 μL per well. Compounds were prepared by an 8 point serial dilution in 50% aqueous DMSO and a final dilution step into medium to ensure a final DMSO concentration of 0.5% in the assay. 5 μL of diluted compounds were added to the plates, followed by a 24 hours incubation at 37° C.
At the day of the assay, 75 μl per well of Quanti-Blue™ reagent was added to all wells of the plate and the plate was incubated another 30 minutes at 37° C. The OD at 620 nm was measured on the EnVision reader (PerkinElmer).
EC50 values and Hill slopes were derived from 8-point four parametric non-linear curve fittings with the Megalab software (Boehringer Ingelheim) using the OD at 620 nm.
Data of EC50 values can be found in tables 2a-2e.
Data of EC50 values on STING HAQ-variant can be found in table 2a. Shown data below were either derived from the parental THP1-Blue™ ISG cell lines (which express endogenously HAQ) or from genetically engineered THP1-Blue™ ISG cell lines in which first STING has been knocked-out and the HAQ specific STING isoform has been re-introduced as described above.
Background: In a reporter assay the amount or activity of a reporter protein is the signal.

For data set [1], the system named is Human STING (hSTING, residues 155-341). Put plainly: Interaction with hSTING as determined by Differential Scanning Fluorimetry (DSF). Type of data set: binding. To be noted: 100 μM test compounds, 5 μM target protein. The procedure: Interaction with hSTING as Determined by Differential Scanning Fluorimetry (DSF)
In DSF, the temperature at which a protein unfolds, also called the melting temperature Tm, is measured by changes in fluorescence of a dye that binds to the hydrophobic parts of the protein. Tm shifts upon binding of a small molecule are correlated with the binding affinity of this small molecule. As target protein, Human STING (hSTING, residues 155-341, MW: 21578.4 Da; protein stock solution: c=1302 μM stock solution in 20 mM Tris, 100 mM NaCl, 2 mM TCEP pH 8.8) was used, as assay buffer 20 mM Tris, 150 mM NaCI pH7.5 was added where and as necessary.
Final concentrations of components in assay: 100 μM test compounds, 5 μM target protein, “5×” SYPR Orange (from stock solution SYPRO orange solution in DMSO (invitrogen cat.-no. S6650-500 ul), concentration “5000×”)
1) Dilutions of compound stock solutions (10 mM in DMSO) were prepared in assay buffer (20 mM Tris, 150 mM NaCl; pH7.5)
2) 5 μl fluorescent dye stock solution (5000×SYPRO Orange in DMSO) was mixed with 19 μl target protein (1302 μM) and 976 μl assay buffer.
3) 2 μl of this protein-dye-mixture (25×SYPRO Orange and 25 μM Protein) was added to 8 μl diluted compound solution as prepared in step 1. Final volume was 10 μl.
4) With every 20 compounds, two negative controls were measured.
5) The plates were prepared for duplicate measurement and centrifuged for 2 min at 1000 g.
6) For the measurement, a CFX384 Real-Time System (Bio-Rad) was used. The run consisted of 140 cycles with 0.5° C./cycle (temperature ramp 15 s/cycle, 25° C. to 95° C.).
Data analysis: The melting curves were processed in Bio-Rad CFX Manager. Peak type was set to “negative”. Two replicates of TM (melting temperature) measurements were averaged and the standard deviation was calculated.

A further data set in a line: in vitro. Conditions: human, Caco-2, pH 7.4.

T1 sequence (Q86WV6 whole entry R71H/G230A/H232R/R293Q): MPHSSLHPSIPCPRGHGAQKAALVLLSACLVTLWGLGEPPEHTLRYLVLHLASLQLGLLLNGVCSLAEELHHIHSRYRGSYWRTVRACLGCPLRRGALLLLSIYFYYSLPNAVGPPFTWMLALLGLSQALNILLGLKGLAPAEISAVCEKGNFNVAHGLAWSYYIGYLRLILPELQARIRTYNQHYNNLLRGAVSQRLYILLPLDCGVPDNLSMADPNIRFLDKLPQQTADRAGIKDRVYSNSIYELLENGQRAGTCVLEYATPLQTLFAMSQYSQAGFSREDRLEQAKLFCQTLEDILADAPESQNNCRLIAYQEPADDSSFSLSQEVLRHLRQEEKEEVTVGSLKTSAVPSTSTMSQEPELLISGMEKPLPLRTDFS

Broadly, the EC50 is the concentration needed to bring the measured effect to its halfway point. Take `C#Cc1cccc2c(-c3cccc4nn(C)cc34)nn(-c3ccc(N4CC5C(C4)C5C(=O)O)nc3)c12` (stereo not shown) [Example #74, 3-(5-{7-ethynyl-2′-methyl-1H,2′H-[3,4′-biindazol]-1-yl}pyridin-2-yl)-3-azabicyclo[3.1.0]hexane-6-carboxylic acid]: the EC50 at STING HAQ-variant was found to be 4.3 µM. Also, the “thermal shift (ΔTm)” value in data set [1] is 16 K.

A word on the efflux ratio: it is a quotient of directional permeabilities that is used to spot active efflux. Turning to `Cc1cccc2c(-c3cccc4nn(C)cc34)nn(-c3ccc(-c4ccc(S(C)(=O)=O)cc4)nc3)c12` [compound 73, 1-[6-(4-methanesulfonylphenyl)pyridin-3-yl]-2′,7-dimethyl-1H,2′H-3,4′-biindazole], the concentration giving a half-maximal response (EC50) on STING HAQ-variant stood at 4.4 µM. Further, in “in vitro”, the efflux ratio at 10 μM is 0.5.

For orientation: Papp A→B means the apparent permeability from the apical to the basolateral side of a cell layer. Read a high Papp A→B as fast passage. Consider `Cc1cccc2c(-c3cccc4nn(C)cc34)nn(-c3ccc(N4CCC(N5CCCC5=O)CC4)nc3)c12` [compound 21, 1-[1-(5-{2′,7-dimethyl-1H,2′H-[3,4′-biindazol]-1-yl}pyridin-2-yl)piperidin-4-yl]pyrrolidin-2-one], for which the half-maximal effective concentration (EC50) at STING HAQ-variant amounted to 4.7 µM. In addition, in data set [1], the “thermal shift (ΔTm)” value is recorded as 20 K. In the data set “in vitro”, the Papp A→B at 10 μM turned out to be 23 ×10⁻⁶ cm/s and the efflux ratio at 10 μM stood at 0.3.

On to `Cc1cccc2c(-c3cccc4nn(C)cc34)nn(-c3ccc(N4CCCN(C=O)CC4)nc3)c12` [compound 52, 4-(5-{2′,7-dimethyl-1H,2′H-[3,4′-biindazol]-1-yl}pyridin-2-yl)-1,4-di-azepane-1-carbalde-hyde], for which, at STING HAQ-variant, the EC50 is 1.9 µM. The “thermal shift (ΔTm)” value in data set [1] was 21 K. For the same compound, the efflux ratio at 10 μM in “in vitro” was 0.4.

Consider `Cc1cccc2c(-c3cccn4nccc34)nn(-c3ccc(N4CCC(C(=O)O)CC4)nc3)c12` [compound 60, 1-[5-(7-methyl-3-{pyra-zolo[1,5-a]pyridin-4-yl}-1H-indazol-1-yl)pyridin-2-yl]piperidine-4-carboxylic acid], for which the EC50 at STING HAQ-variant came out at 6.6 µM. For the same compound, in the data set “in vitro”, the Papp A→B at 10 μM is 19 ×10⁻⁶ cm/s and the efflux ratio at 10 μM was 0.9.

As for `Cc1cccc2c(-c3cccc4nn(C)cc34)nn(-c3ccc(N4CC5(CCS(=O)(=O)CC5)C4)nc3)c12` [compound 4, 2-(5-{2′,7-dimethyl-1H,2′H-[3,4′-biindazol]-1-yl}pyri-din-2-yl)-7λ^6-thia-2-azaspiro[3.5]nonane-7,7-dione], the EC50 on STING HAQ-variant stood at 1.1 µM. For the same compound, the “thermal shift (ΔTm)” value in data set [1] stood at 20 K.

On to `COCCNc1ccc(-n2nc(-c3cccc4nn(C)cc34)c3cccc(C)c32)cn1` [compound 14, 5-{2′,7-dimethyl-1H,2′H-[3,4′-biindazol]-1-yl}-N-(2-methoxyethyl)pyridin-2-amine], for which the EC50 at STING HAQ-variant amounted to 6.9 µM. Besides, the “thermal shift (ΔTm)” value in data set [1] is given as 18 K. Moreover, in “in vitro”, the apparent permeability from apical to basolateral (Papp A→B) at 10 μM stood at 39 ×10⁻⁶ cm/s and the efflux ratio at 10 μM stood at 0.3.

With `COC(=O)c1ccc2c(-c3cccc4nn(C)cc34)nn(-c3ccc(N4CCC(S(C)(=O)=O)CC4)nc3)c2c1C` [compound 25, methyl 1-[6-(4-meth-anesulfonylpiperidin-1-yl)pyridin-3-yl]-2′,7-di-methyl-1H,2′H-[3,4′-biindazole]-6-carboxylate], the EC50 on STING HAQ-variant amounted to 0.2 µM. In data set [1], the “thermal shift (ΔTm)” value worked out at 25 K.

As to `Cc1cccc2c(-c3cccc4nn(C)cc34)nn(-c3ccc(N4CCCNCC4)nc3)c12` [compound 45, 1-(6-(1,4-diazepan-1-yl)pyridin-3-yl)-2′,7-dimethyl-1H,2′H-3,4′-biindazole], the EC50 at STING HAQ-variant amounted to 1.9 µM. Besides, in data set [1], the “thermal shift (ΔTm)” value was found to be 19 K.

As to `Cc1cccc2c(-c3cccc4nn(C)cc34)nn(-c3ccc(N4CCC(c5cnn(C)c5)CC4)nc3)c12` [compound 20, 2′,7-dimethyl-1-{6-[4-(1-methyl-1H-pyrazol-4-yl)pi-peridin-1-yl]pyridin-3-yl}-1H,2′H-3,4′-biindazole], the EC50 on STING HAQ-variant amounted to 2.2 µM. In addition, the “thermal shift (ΔTm)” value in data set [1] is 20 K. The efflux ratio at 10 μM in the data set “in vitro” is 0.8.

`CCOC(=O)C1CCN(c2ccc(-n3nc(-c4cccc5nn(C)cc45)c4cccc(C)c43)cn2)CC1` [compound 31, ethyl 1-(5-{2′,7-dimethyl-1H,2′H-[3,4′-biindazol]-1-yl}pyridin-2-yl)piperidine-4-carboxylate]: on STING HAQ-variant, the 50% effective concentration (EC50) was 5.4 µM. Besides, the efflux ratio at 10 μM in the data set “in vitro” was found to be 0.6.

Take `CC(=O)N(C)C1CCN(c2ccc(-n3nc(-c4cccc5nn(C)cc45)c4cccc(C)c43)cn2)C1` (stereo not shown) [Example #6, N-[1-(5-{2′,7-dimethyl-1H,2′H-[3,4′-biindazol]-1-yl}pyridin-2-yl)pyrrolidin-3-yl]-N-methylacetamide]: the EC50 on STING HAQ-variant was 3.1 µM. In addition, the “thermal shift (ΔTm)” value in data set [1] is listed as 22 K. In “in vitro”, the Papp A→B at 10 μM was 39 ×10⁻⁶ cm/s and the efflux ratio at 10 μM is 0.4.

For `Cc1cccc2c(-c3cccc4nn(C)cc34)nn(-c3ccc(N4CCC(C)(C(=O)O)CC4)nc3)c12` [compound 27, 1-(5-{2′,7-dimethyl-1H,2′H-[3,4′-biindazol]-1-yl}pyri-din-2-yl)-4-methylpiperi-dine-4-carboxylic acid], the 50% effective concentration (EC50) on STING HAQ-variant is 5.2 µM. Also, the “thermal shift (ΔTm)” value in data set [1] stood at 22 K. Moreover, in “in vitro”, the Papp A→B at 10 μM came out at 32 ×10⁻⁶ cm/s and the efflux ratio at 10 μM worked out at 0.5.

With `Cc1cccc2c(-c3cccc4nn(C)cc34)nn(-c3ccc(N4CC5CC4CO5)nc3)c12` (stereo not shown) [compound 11, 2′,7-dimethyl-1-(6-{2-oxa-5-azabicyclo[2.2.1]heptan-5-yl}pyridin-3-yl)-1H,2′H-3,4′-biindazole], the EC50 at STING HAQ-variant amounted to 3.2 µM. The “thermal shift (ΔTm)” value in data set [1] was found to be 21 K. Further, in “in vitro”, the Papp A→B at 10 μM was determined as 27 ×10⁻⁶ cm/s and the efflux ratio at 10 μM was found to be 0.3.

As to `Cc1cccc2c(-c3cccc4nn(C)cc34)nn(-c3ccc(N4CCN5C(=O)OCC5C4)nc3)c12` (stereo not shown) [compound 8, 7-(5-{2′,7-dimethyl-1H,2′H-[3,4′-biindazol]-1-yl}pyri-din-2-yl)-hexahydro-1H-[1,3]oxazolo[3,4-a]pyrazin-3-one], on STING HAQ-variant, the EC50 came to 1.2 µM. In data set [1], the “thermal shift (ΔTm)” value is 21 K.

For the origin of these results see patent publication US12065427B2, “Heterocyclic compounds capable of activating STING” (BOEHRINGER INGELHEIM INTERNATIONAL GMBH, priority 2021, dated 2024).
